Results: patent publication US20230357271A1, “MACROCYCLIC COMPOUND” (Asahi Kasei Pharma Corporation, priority 2020, published 2023)
Read-outs that look alike come from different tables or passages of the source.

Experiments:
[1] = cn_pd bond
[2] = from CC1CC(N)C[C@@H](C(=O)NCC/C=C/c2c(OCc3ccccc3)ccc3ncc(Br)cc23)N1C; cn_pd bond; 14-membered ring; Pd2(dba)3/XPhos/NaOPh; 1,4-dioxane; 97.4 mM; 14.0 h
[3] = tested on: human acute monocytic leukemia cell strain THP-1; test: LPS-stimulated TNFα production inhibition test using THP-1 cells; type: cell-based; settings: LPS 2.5 ng/mL, TNFα by HTRF
Protocol: By the THP-1 assay, influence of a test compound on the TNFα production induced by LPS stimulation can be evaluated. The THP-1 cells (ATCC, Cat. TIB-202) were inoculated on a 96-well plate at a density of 1 × 10^5 cells/160 µL/well, a test compound was added in a volume of 20 µL, and the plate was incubated at 37° C. for 1 hour in a 5% CO2 incubator. Then, LPS in a volume of 20 µL (final concentration 2.5 ng/mL, Sigma, Cat. L2630) was added, and the plate was further incubated for 4 hours. After the incubation, the plate was centrifuged, and 100 µL of the supernatant was taken from each well, and used for evaluation of the amount of TNFα using HTRF (Cisbio, Cat. 62TNFPEB). In the measurement of the amount of TNFα, the supernatant was diluted twice with the medium, and then added to wells of a 384-well plate in a volume of 10 µL, then anti-TNFα-cryptate (5 µL), and anti-TNFα-XL665 (5 µL) were added, and the plate was left standing overnight. The fluorescence intensity ratio for the wavelengths of 620 and 665 nm (620 nm/665 nm) was measured with a microplate reader, and the amount of TNFα in the supernatant was calculated by using a calibration curve. The TNFα production suppression ratio observed with no addition of LPS was defined to be 100%, the TNFα production suppression ratio observed with no addition of the test compound was defined to be 0%, and IC50 of the test compound was calculated by using the 4-parameter logistic model of the data analysis software XLfit (ID Business Solutions Ltd.).
When the measurement was performed in multiplicate, the results are represented with average values. The values were rounded to the fourth decimal place.

[4] = target: human IRAK-4 (Homo sapiens (Human), UniProt Q9NWZ3); test: Measurement of human IRAK-4 inhibitory activity (TR-FRET); type: biochemical; settings: 1 nM IRAK-4, 0.5 µM peptide substrate, 10 µM ATP, 23° C., 30 minutes
Protocol: For the measurement of the activity of the human IRAK-4 (Invitrogen, Cat. PV3362), phosphorylation of the IRAK-4 peptide substrate (biotin-KKKKRFSFKKSFKC) by the enzyme in the presence of 10 µM ATP (Sigma-Aldrich, Cat. A7699) was measured by the TR-FRET method. The enzymatic reaction was performed in a reaction buffer containing 50 mM HEPES (pH 7.2), 1 mM DTT, 0.1 mM Na3VO4, 5 mM MgCl2, 1 mM MnCl2, and 0.1% bovine serum albumin. For the measurement of the IRAK-4 inhibitory activity, a test compound was added to the reaction buffer containing 1 nM IRAK-4, 0.5 µM peptide substrate, and 10 µM ATP, and the mixture was incubated at 23° C. for 30 minutes. Then, a detection solution containing an antibody labeled with europium cryptate (0.3 µg/mL, the antibody was prepared by using the IRAK-4 peptide substrate as the antigen), streptavidin-XL665 (2 µg/mL, CisBio, Cat. 610SAXLB), 50 mM HEPES (pH 7.2), 0.1% BSA, 120 mM KF, and 66.7 mM EDTA (all the concentrations of the reagents are final concentrations) was added to terminate the reaction, and then the mixture was further incubated at 23° C. for 60 minutes. Fluorescence intensity was measured at wavelengths of 665 nm and 620 nm with a microplate reader, and the enzymatic activity was calculated as the ratio of fluorescence intensities at 665 nm and 620 nm (665 nm/620 nm).
When the measurement was performed in multiplicate, the results are represented with average values.

Chain of human IRAK-4 (Q9NWZ3 whole entry): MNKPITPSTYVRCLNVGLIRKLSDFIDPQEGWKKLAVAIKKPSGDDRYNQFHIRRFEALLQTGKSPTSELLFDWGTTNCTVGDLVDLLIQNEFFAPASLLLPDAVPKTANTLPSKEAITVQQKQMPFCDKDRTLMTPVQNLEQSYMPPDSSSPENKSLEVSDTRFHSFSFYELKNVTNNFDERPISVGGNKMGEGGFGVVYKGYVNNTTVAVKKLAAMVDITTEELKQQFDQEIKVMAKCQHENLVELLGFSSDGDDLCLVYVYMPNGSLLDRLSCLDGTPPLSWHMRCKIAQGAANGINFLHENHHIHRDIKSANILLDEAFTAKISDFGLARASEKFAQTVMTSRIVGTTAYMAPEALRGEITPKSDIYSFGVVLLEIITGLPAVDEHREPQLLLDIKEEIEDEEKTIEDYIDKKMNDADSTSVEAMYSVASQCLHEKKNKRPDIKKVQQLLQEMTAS

CC(C)(C)OC(=O)N1CC[C@H]2C[C@H]1C(=O)NCCCCc1c(OCc3ccccc3)ccc3ncc(cc13)N2
ring closure, yield of all isomers ([1]; from CC(C)(C)OC(=O)N1CC[C@H](N)C[C@H]1C(=O)NCCCCc1c(OCc2ccccc2)ccc2ncc(Br)cc12, tBuBrettPhos Pd G3 / phosphazene base P2-Et, toluene, 29.3 mM, 25.0 °C): 39%

CC1CC2C[C@@H](C(=O)NCC/C=C/c3c(OCc4ccccc4)ccc4ncc(cc34)N2)N1C (stereo partly shown)
ring closure, yield of all isomers ([1]; from CC1CC(N)C[C@@H](C(=O)NCC/C=C/c2c(OCc3ccccc3)ccc3ncc(Br)cc23)N1C, Pd2(dba)3 / XPhos / sodium phenoxide, 1,4-dioxane, 97.4 mM, 101.0 °C, 14.0 h): 75%

CC1CC2C[C@@H](C(=O)NCCC=Cc3c(OCc4ccccc4)ccc4ncc(cc34)N2)N1C (stereo partly shown)
ring closure, isolated yield [2]: 75%

CN1CCC2CC1(C)C(=O)NCC(F)COc1c(OCc3ccccc3)ccc3ncc(cc13)N2 (stereo not shown)
ring closure, yield of all isomers ([1]; from CN1CCC(N)CC1(C)C(=O)NCC(F)COc1c(OCc2ccccc2)ccc2ncc(Br)cc12, Pd2(dba)3 / XPhos / sodium phenoxide, 1,4-dioxane, 107.0 mM, 101.0 °C, 14.0 h): 32%

CC1CNC(=O)[C@@H]2C[C@H](CCN2C)Nc2cnc3ccc(-c4cncnc4)c(c3n2)OC1 (stereo partly shown) [a-01-36]
IC50 ([3]; Homo sapiens, THP-1, 4 h): 0.182 µM
IC50 [4]: 8.86 nM

CCCOCc1ncc(-c2ccc3ncc4nc3c2OCCC(CC)CNC(=O)[C@@H]2C[C@H](CCN2C)N4)cn1 (stereo partly shown) [a-01-37]
IC50 ([3]; Homo sapiens, THP-1, 4 h): 0.189 µM
IC50 [4]: 4.52 nM

CCCOCc1ncc(-c2ccc3ncc4nc3c2OCCCN(C)C(=O)[C@@H]2C[C@H](CCN2C)N4)cn1 [a-01-38]
IC50 ([3]; Homo sapiens, THP-1, 4 h): 0.199 µM
IC50 [4]: 6.73 nM

CN1CC[C@H]2C[C@H]1C(=O)NCCCCCOc1c(-c3cncnc3)ccc3ncc(nc13)N2 [a-01-39]
IC50 ([3]; Homo sapiens, THP-1, 4 h): 0.204 µM
IC50 [4]: 5.12 nM

CN1CC[C@H]2C[C@H]1C(=O)NCC(C)(C)COc1c(-c3cncnc3)ccc3ncc(nc13)N2 [a-01-40]
IC50 ([3]; Homo sapiens, THP-1, 4 h): 0.253 µM
IC50 [4]: 14.8 nM

Cc1ncc(-c2ccc3ncc4nc3c2OCC(F)CNC(=O)[C@@H]2C[C@H](CCN2C)N4)cn1 (stereo partly shown) [a-01-41]
IC50 ([3]; 4 hours): 0.293 µM
IC50 [4]: 10 nM

Cc1ncc(-c2ccc3ncc4nc3c2OCCCN(C)C(=O)[C@@H]2C[C@H](CCN2C)N4)cn1 [a-01-42]
IC50 ([3]; Homo sapiens, THP-1, 4 h): 0.246 µM
IC50 [4]: 6.61 nM

CN1CC[C@H]2C[C@H]1C(=O)NCC1(CCC1)COc1c(-c3cnc(CO)s3)ccc3ncc(nc13)N2 [a-01-44]
IC50 ([3]; Homo sapiens, THP-1, 4 h): 0.21 µM
IC50 [4]: 2.36 nM

COCc1ncc(-c2ccc3ncc4nc3c2OCCCNC(=O)[C@@H]2C[C@H](CCN2C)N4)cn1 [a-01-45]
IC50 ([3]; Homo sapiens, THP-1, 4 h): 0.227 µM
IC50 [4]: 3.28 nM

CCCOCc1ncc(-c2ccc3ncc4cc3c2OCC(F)CNC(=O)[C@@H]2C[C@H](CC(C)N2C)N4)cn1 (stereo partly shown) [a-02-01]
IC50 ([3]; Homo sapiens, THP-1, 4 h): 0.012 µM
IC50 [4]: 2.33 nM

CCCOCc1ncc(-c2ccc3ncc4cc3c2OCC(F)CNC(=O)[C@@H]2C[C@H](CCN2C)N4)cn1 (stereo partly shown) [a-02-02, (3^2S,3^4S)-7-Fluoro-3^1-methyl-1^6-(2-(propoxymethyl)pyrimidin-5-yl)-9-oxa-2,5-diaza-1(3,5)-qunolina-3(4,2)-piperidinacyclononaphan-4-one]
IC50 ([3]; Homo sapiens, THP-1, 4 h): 0.013 µM
IC50 [4]: 1.09 nM

O=C1OCCCOc2c(-c3cnc(CO[C@H]4CCC[C@@H]4O)nc3)ccc3ncc(cc23)N[C@H]2CCN[C@H]1C2 [a-02-03]
IC50 ([3]; Homo sapiens, THP-1, 4 h): 0.013 µM
IC50 [4]: 2.51 nM

CN1CC[C@H]2C[C@H]1C(=O)OCCCOc1c(-c3cnc(COCC(O)C4CC4)nc3)ccc3ncc(cc13)N2 (stereo partly shown) [a-02-04]
IC50 ([3]; Homo sapiens, THP-1, 4 h): 0.023 µM
IC50 [4]: 5.63 nM

CCCOCc1ncc(-c2ccc3ncc4cc3c2OCCCOC(=O)[C@@H]2C[C@H](CCN2)N4)cn1 [a-02-05]
IC50 ([3]; Homo sapiens, THP-1, 4 h): 0.023 µM
IC50 [4]: 2.47 nM

[2H]C([2H])([2H])N1CC[C@H]2C[C@H]1C(=O)NCC(F)COc1c(-c3cnc(COCCC)nc3)ccc3ncc(cc13)N2 (stereo partly shown) [a-02-06]
IC50 ([3]; Homo sapiens, THP-1, 4 h): 0.024 µM
IC50 [4]: 2 nM

Cc1ncc(-c2ccc3ncc4cc3c2OCCCOC(=O)C2CC(CC(C)N2C)N4)cn1 (stereo not shown) [a-02-07]
IC50 ([3]; Homo sapiens, THP-1, 4 h): 0.033 µM
IC50 [4]: 2.04 nM

CCC(O)COCc1ncc(-c2ccc3ncc4cc3c2OCCCOC(=O)[C@@H]2C[C@H](CCN2C)N4)cn1 (stereo partly shown) [a-02-08]
IC50 ([3]; Homo sapiens, THP-1, 4 h): 0.036 µM
IC50 [4]: 5.73 nM

Cc1ncc(-c2ccc3ncc4cc3c2OCC(F)CNC(=O)[C@@H]2C[C@H](CC(C)N2C)N4)cn1 (stereo partly shown) [a-02-09]
IC50 ([3]; Homo sapiens, THP-1, 4 h): 0.036 µM
IC50 [4]: 0.86 nM

CCCOCc1ncc(-c2ccc3ncc4cc3c2OCCCOC(=O)[C@@H]2C[C@H](CCN2C)N4)cn1 [a-02-10]
IC50 ([3]; Homo sapiens, THP-1, 4 h): 0.043 µM
IC50 [4]: 2.96 nM

O=C1OCCCOc2c(-c3cnc(CO)nc3)ccc3ncc(cc23)N[C@H]2CCN[C@H]1C2 [a-02-12]
IC50 ([3]; Homo sapiens, THP-1, 4 h): 0.047 µM
IC50 [4]: 0.93 nM

Cc1ncc(-c2ccc3ncc4cc3c2OCC(F)CNC(=O)[C@@H]2C[C@H](CCN2C(C)C)N4)cn1 (stereo partly shown) [a-02-13]
IC50 ([3]; Homo sapiens, THP-1, 4 h): 0.048 µM
IC50 [4]: 1.12 nM

CCCOCc1ncc(-c2ccc3ncc4cc3c2OCC(F)COC(=O)[C@@H]2C[C@H](CCN2C)N4)cn1 (stereo partly shown) [a-02-14]
IC50 ([3]; Homo sapiens, THP-1, 4 h): 0.058 µM
IC50 [4]: 6.46 nM

CN1CC[C@H]2C[C@H]1C(=O)OCCCOc1c(-c3cnc(CO)nc3)ccc3ncc(cc13)N2 [a-02-15]
IC50 ([3]; Homo sapiens, THP-1, 4 h): 0.064 µM
IC50 [4]: 2.23 nM

Cc1ncc(-c2ccc3ncc4cc3c2OCC(F)CNC(=O)[C@@H]2C[C@H](CCN2C)N4)cn1 (stereo partly shown) [a-02-16]
IC50 ([3]; Homo sapiens, THP-1, 4 h): 0.065 µM
IC50 [4]: 0.81 nM

Cc1ncc(-c2ccc3ncc4cc3c2OCCCOC(=O)[C@@H]2C[C@H](CCN2)N4)cn1 [a-02-18]
IC50 ([3]; Homo sapiens, THP-1, 4 h): 0.081 µM
IC50 [4]: 1.66 nM

Cc1ncc(-c2ccc3ncc4cc3c2OCC2(CC2)COC(=O)[C@@H]2C[C@H](CCN2C)N4)cn1 [a-02-19]
IC50 ([3]; Homo sapiens, THP-1, 4 h): 0.102 µM
IC50 [4]: 3.9 nM

Cc1ncc(-c2ccc3ncc4cc3c2OCCCOC(=O)[C@@H]2C[C@H](CCN2C)N4)cn1 [a-02-20]
IC50 ([3]; Homo sapiens, THP-1, 4 h): 0.117 µM
IC50 [4]: 3.21 nM

Cc1ncc(-c2ccc3ncc4cc3c2OCCCNC(=O)[C@@H]2C[C@H](CCN2C)N4)cn1 [a-02-21]
IC50 ([3]; Homo sapiens, THP-1, 4 h): 0.135 µM
IC50 [4]: 2.2 nM

Cc1ncc(-c2ccc3ncc4cc3c2OCC(F)CNC(=O)C2(C)CC(CCN2C)N4)cn1 (stereo not shown) [a-02-23, 7-Fluoro-3^1,3^2-dimethyl-1^6-(2-methylpyrimidin-5-yl)-9-oxa-2,5-diaza-1 (3,5)-qunolina-3(4,2)-piperidinacyclononaphan-4-one]
IC50 ([3]; Homo sapiens, THP-1, 4 h): 0.716 µM
IC50 [4]: 9.7 nM

CCCOCc1ncc(-c2ccc3ncc4cc3c2CCCCNC(=O)[C@@H]2C[C@H](CCN2C)N4)cn1 [a-02-24, (3^2S,3^4S)-3^1-Methyl-1^6-(2-(propoxymethyl)pyrimidin-5-yl)-2,5-diaza-1(3,5)-qunolina-3(4,2)-piperidinacyclononaphan-4-one]
IC50 ([3]; Homo sapiens, THP-1, 4 h): 0.378 µM
IC50 [4]: 13.2 nM
